# From patent US11918597B2, “Triple combination therapies for anti-aging” (LUNELLA BIOTECH, INC., priority 2018, dated 2024)
# Like-named read-outs stand apart in the source and are kept apart here.
# How the values were obtained:
# CSCs = assay: CSC propagation / CSC inhibition activity (cell line not stated); assay type: cell-based
# MCF7 cells [1] = assay: Metabolic flux analysis (Seahorse XFe96, OCR and ECAR); assay type: cell-based, human; conditions: MCF7 monolayers pre-treated 3-days, doxycycline 1 μM, azithromycin 1 μM, Vitamin C 250 μM as applicable
# Protocol: Metabolic Flux Analysis: Real-time oxygen consumption rates (OCR) and extracellular acidification rates (ECAR) rates in MCF7 cells were determined using the Seahorse Extracellular Flux (XFe96) analyzer (Seahorse Bioscience, USA). Briefly, 1.5×10^4 cells per well were seeded into XFe96 well cell culture plates, and incubated overnight to allow cell attachment. Then, cells were treated with antibiotics for 72 h. Vehicle-alone control cells were processed in parallel. After 72 hours of incubation, cells were washed in pre-warmed XF assay media (or for OCR measurement, XF assay media supplemented with 10 mM glucose, 1 mM Pyruvate, 2 mM L-glutamine and adjusted at 7.4 pH). Cells were then maintained in 175 μL/well of XF assay media at 37° C., in a non-CO2 incubator for 1 hour. During the incubation time, we loaded 25 μL of 80 mM glucose, 9 μM oligomycin, and 1M 2-deoxyglucose (for ECAR measurement) or 10 μM oligomycin, 9 μM FCCP, 10 μM rotenone, 10 μM antimycin A (for OCR measurement), in XF assay media into the injection ports in the XFe96 sensor cartridge. Measurements were normalized by protein content (Bradford assay). Data sets were analyzed using XFe96 software and GraphPad Prism software, using one-way ANOVA and Student's t-test calculations. All experiments were performed in quintuplicate, three times independently.
# MCF7 cells [2] = assay: Mammosphere formation assay (CSC propagation); assay type: cell-based, human; conditions: for inhibition at 250 µM: suspension treatment 5-days, doxycycline 1 μM, azithromycin 1 μM, Vitamin C 250 μM, read-out: MFE (% Inhibition ± SD); for IC50: MCF7 cells (FIG. 15), read-out: half maximal inhibitory concentration (IC50), mammosphere assay
# Protocol: The following paragraphs discuss laboratory data and analysis for select embodiments of the present approach. Doxycycline and azithromycin were tested alone and in combination at low concentrations to evaluate the resulting inhibitory effect on mammosphere formation. FIGS. 1A-1C summarize mammosphere formation data for varying concentrations and combinations.
# The temporal effects of pre-treatment on the efficacy of the present approach have been evaluated in the pre-clinical setting, using CSC propagation as the measurement. […] This may be due to MCF7 cells' ability to induce oxidative stress, driving an anti-oxidant response. Given these […] results, it appears embodiments of the present approach that simultaneously co-administer all three therapeutic agents appear to have the most significant impact on the CSC population, and are preferred. […] However, some embodiments may call for administering therapeutic agents within a narrow window, such as 1-3 hours, over multiple days (e.g., 3-7 days in some embodiments, 4-14 days in some embodiments). The antibiotics may be administered in oral form (e.g., pill or tablet), while the Vitamin C is administered intravenously in some embodiments. In others, all three therapeutic agents may be administered orally, either as separate pills or tabs, or as a single concoction containing each therapeutic agent.
# Mammosphere Formation Assay: A single cell suspension was prepared using enzymatic (lx Trypsin-EDTA, Sigma Aldrich, #T3924), and manual disaggregation (25 gauge needle). Cells were plated at a density of 500 cells/cm2 in mammosphere medium (DMEM-F12+B27+20 ng/ml EGF+PenStrep) under non-adherent conditions, in culture dishes pre-coated with (2-hydroxyethylmethacrylate) (poly-HEMA, Sigma, #P3932), called “tumor-sphere plates”. Vehicle alone (DMSO) control cells were processed in parallel. Cells were grown for 5 days and maintained in a humidified incubator at 37° C. After 5 days of culture, 3D mammospheres >50 μm were counted using an eye piece (“graticule”), and the percentage of cells plated which formed spheres was calculated and is referred to as percent mammosphere formation (MFE, and was normalized to one (1=100% MSF).
# rat heart = conditions: conditions of hypoxia, Vitamin C alone; cited from earlier work
# U937 cells = conditions: 15 minutes, media containing 3 μM Vitamin C; cited from earlier work
# [3] = oral administration; cited from earlier work
# senescent fibroblasts = assay: Senolytic activity on senescent fibroblasts; assay type: cell-based; conditions: azithromycin by itself
# From the text: Embodiments of the present approach also have implications for improving health-span and life-span. Azithromycin, by itself, is an FDA-approved drug with remarkable senolytic activity that targets and removes senescent fibroblasts, such as myo-fibrobasts. This senolytic activity has considerable efficiency, approaching nearly 97%. The accumulation of pro-inflammatory senescent cells is thought to be the primary cause of many aging-associated diseases, such as heart disease, diabetes, dementia and cancer, for example. Since cancer-associated fibroblasts (CAFs) are senescent myo-fibroblasts, with tumor promoting activity, triple combination embodiments of the present approach with Azithromycin may also effectively target the glycolytic tumor stroma of aggressive and metastatic cancers, especially those bearing the metabolic hallmarks of the “Reverse Warburg Effect.” In some embodiments, the composition prevents acquisition of a senescence-associated secretory phenotype. In some embodiments, the composition facilitates tissue repair and regeneration. In some embodiments, the composition increases at least one of organismal life-span and health-span.
# senescent MRC-5 cells = assay: BrdU-induced senescence senolytic assay (SRB / xCELLigence); assay type: cell-based, human; conditions: BrdU-treated MRC-5 fibroblasts; even at concentrations as low as 25 μM
# Protocol: (§1) Bromodeoxyuridine (5-bromo-2′-deoxyuridine), also known as BrdU, was used to induce senescence. BrdU is an analog of the nucleoside thymidine commonly used to identify proliferating cells. BrdU induces controlled DNA damage, and drives cells towards senescence with high efficiency. The BrdU assay of the present approach calls for subjecting normal fibroblasts to prolonged culture (8-days) in the presence of BrdU at 100 μM to induce controlled DNA-damage and senescence. […] Then, isogenically-matched cultures of normal and senescent fibroblasts may be used for drug screening to identify drugs having senolytic activity. Senolytic activity may be detected using the sulforhodamine B assay, also known in the art as the SRB assay. This assay measures the amount of protein remaining attached to the tissue-culture dishes, and is a surrogate marker for cell viability. This approach may be used to rapidly screen compounds, including clinically-approved drugs, such as, for example, antibiotics. For example, in embodiments described herein, the present approach was used to screen erythromycin family members, including azithromycin and roxithromycin, among other compounds and conjugates. It should be appreciated that the present approach may be used to screen other compounds.
# bulk BJ cells = assay: Cell viability, bulk BJ cells; assay type: cell-based, human; conditions: bulk BJ cells (normal fibroblasts); range of concentrations, up to 20 μM
# Protocol: as §1, with “For example, in embodiments described herein, the present approach was used to screen erythromycin family members, including azithromycin and roxithromycin, among other compounds and conjugates. It should be appreciated that the present approach may be used to screen other compounds.” left out
# Embodiments of therapeutic agents conjugated with targeting signals have shown less toxicity in bulk cancer cells and normal fibroblasts compared to unconjugated therapeutic agents. […] The data represents cell viability expressed as a percentage of a control. […]
# bulk MCF7 cells = assay: Cell viability, bulk MCF7 cells; assay type: cell-based, human; conditions: range of concentrations, up to 20 μM
# From the text: Embodiments of therapeutic agents conjugated with targeting signals have shown less toxicity in bulk cancer cells and normal fibroblasts compared to unconjugated therapeutic agents. For example, FIGS. 17A and 17B show cell viability data for doxycycline and the doxycycline-myristate conjugate shown as compound [1], for bulk MCF7 cells and bulk BJ cells, respectively. The data represents cell viability expressed as a percentage of a control. […] Similar behavior has been seen in other therapeutic agents conjugated with targeting signals.
structure (smiles),measurement,setting,value
CCCCCCCCCCCCCC(=O)N(C)[C@H]1C[C@@H](C)O[C@@H](O[C@@H]2[C@@H](C)[C@H](O[C@H]3C[C@@](C)(OC)[C@@H](O)[C@H](C)O3)[C@@H](C)C(=O)O[C@H](CC)[C@@](C)(O)[C@H](O)[C@@H](C)N(C)C[C@H](C)C[C@@]2(C)O)[C@@H]1O [Compound [15]],potency for CSCs compared to azithromycin alone,CSCs,improved
same,selectivity for CSCs compared to azithromycin alone,CSCs,improved
"O=C1O[C@H]([C@@H](O)CO)C(O)=C1O [Vitamin C, Ascorbic Acid]",ATP production / ATP levels,MCF7 cells [1],significantly increased
same,basal and maximal respiration,MCF7 cells [1],significantly increased
same,glycolysis / glycolytic function (ECAR),MCF7 cells [1],significantly increased
same,glycolytic reserve,MCF7 cells [1],significantly increased
same,glycolytic reserve capacity,MCF7 cells [1],decreasing
same,"oxidative mitochondrial metabolism (OCR, mitochondrial oxygen consumption)",MCF7 cells [1],significantly increased
same,ATP production / ATP levels,MCF7 cells [1]; listed as low-dose Vitamin C,increased
same,basal and maximal respiration,MCF7 cells [1]; listed as low-dose Vitamin C,increased
same,glycolysis / glycolytic function (ECAR),MCF7 cells [1]; listed as low-dose Vitamin C,increased
same,"oxidative mitochondrial metabolism (OCR, mitochondrial oxygen consumption)",MCF7 cells [1]; listed as low-dose Vitamin C,increases
same,inhibition at 250 µM,"MCF7 cells [2]; Homo sapiens, MCF7, Monolayer pre-treatment D + A 7-days",39.1%
same,inhibition at 250 µM,"MCF7 cells [2]; Homo sapiens, MCF7, Monolayer pre-treatment Vit C 7-days",49.2%
same,increase of mitochondrial ATP production,rat heart,up to 1.5 fold
same,Vitamin C level reached in the mitochondria,U937 cells,5 mM
same,peak Vitamin C concentration in blood/serum/plasma,[3],about 250 μM
CC[C@H]1OC(=O)[C@H](C)[C@@H](O[C@H]2C[C@@](C)(OC)[C@@H](O)[C@H](C)O2)[C@H](C)[C@@H](O[C@@H]2O[C@H](C)C[C@H](N(C)C)[C@H]2O)[C@](C)(O)C[C@@H](C)CN(C)[C@H](C)[C@@H](O)[C@]1(C)O [azithromycin],inhibition of mammosphere formation,MCF7 cells [2]; alone at low concentrations (0.1 μM and 1 μM),little or no effect
same,"senolytic activity, efficiency of removing senescent fibroblasts",senescent fibroblasts,~97%
"CCCCCCCCCCCCCC(=O)N(C)[C@H]1C[C@@H](C)O[C@@H](O[C@@H]2[C@@H](C)[C@H](O[C@@H]3C[C@@](C)(OC)[C@@H](O)[C@H](C)O3)[C@@H](C)C(=O)O[C@H](CC)[C@@](C)(O)[C@H](O)[C@@H](C)N(C)C[C@H](C)C[C@@]2(C)O)[C@@H]1O [azithromycin—fatty acid conjugate, N-[(2S,3R,4S,6R)-2-[ [(2R,3S,4R,5R,8R,10R,11R,12S,13S,14R)-2-ethyl-3,4,10-trihydroxy-13-[(2S,4R,5S,6S)-5-hydroxy-4-methoxy-4,6-dimethyl-tetrahydropyran-2-yl]oxy-3,5,6,8,10,12,14-heptamethyl-15-oxo-1-oxa-6-azacyclopentadec-11-yl]oxy]-3-hydroxy-6-methyl-tetrahydropyran-4-yl]-N-methyl-tetradecanamide]","senescent MRC-5 cells targeted (final cell index after 5 days, xCELLigence)",senescent MRC-5 cells,~100%
"CCCCCCCCCCCCCC(=O)Nc1ccc2c(c1O)C(=O)C1=C(O)[C@]3(O)C(=O)C(C(N)=O)=C(O)[C@@H](N(C)C)C3[C@@H](O)C1[C@H]2C (stereo partly drawn) [doxycycline-myristate conjugate, (4S,5S,6R,12aS)-4-(dimethylamino)-3,5,10,12,12a-pentahydroxy-6-methyl-1,11-dioxo-9-(tetradecanoylamino)-4a,5,5a,6-tetrahydro-4H-tetracene-2-carboxamide]",CSC inhibition activity compared with the unconjugated antibiotic,CSCs; fatty acid moiety is myristate (n is 12),better CSC inhibitory properties
same,inhibition at 2.5 µM,"MCF7 cells [2]; Homo sapiens, MCF7, 2.5 μM, read-out: inhibition of MCF7 mammosphere formation relative to the control",40 to 60%
same,IC50,MCF7 cells [2]; Homo sapiens,3.46 µM
same,potency in mammosphere assay compared with doxycycline (FIG. 14),"MCF7 cells [2]; MCF7, 1.5 μM, 3 μM, 6 μM, 12 μM",more potent than unconjugated doxycycline
same,toxicity (cell viability as percentage of control),bulk BJ cells,less toxic than doxycycline
same,toxicity (cell viability as percentage of control),bulk MCF7 cells,less toxic than doxycycline
C[C@H]1c2cccc(O)c2C(=O)C2=C(O)[C@]3(O)C(=O)C(C(N)=O)=C(O)[C@@H](N(C)C)[C@@H]3[C@@H](O)[C@@H]21 [doxycycline],IC50,MCF7 cells [2]; Homo sapiens,18.1 µM
